Laboratory results from PMC5720837, “Identification of a 4-fluorobenzyl L-valinate amide benzoxaborole (AN11736) as a potential development candidate for the treatment of Animal African Trypanosomiasis (AAT)” (Bioorganic & Medicinal Chemistry Letters, 2018).

Columns and labels:
[1] = test system: T. c. parasites (STIB736/IL1180 strain); assay: In vivo mouse model of T. congolense infection; design: species or system NMRI female mice; details: for Efficacy in mouse model T. c., n/m (mice survived / total mice in group): intraperitoneal, monitored 60 days post treatment; for curative efficacy in the T. c.-infected mouse model: single dose of 10 mg/kg
Description: (§1) Selected compounds were screened in both mouse and bovine in vitro metabolic stability assays (mouse S9 and bovine S9), as summarized in Table 2. These two species were chosen because the primary in vivo assays were conducted in mice, and the target animal of this research program is cattle. […] We evaluated the efficacy of selected compounds in two in vivo mouse models of infection, against T. congolense and T. vivax, respectively. Mice were infected with either 1 × 10^5 T. c. parasites or 1 × 10^4 T. v. parasites, and then treated with a test compound via intraperitoneal administration for 1, 2 or 4 consecutive days. The mice were then monitored for the presence of parasitemia for up to 60 days post treatment.[7] We tested in T. c. model first, then followed up with T. v. for interesting compounds. […] We selected compound 5 (AN11736) to progress to exploratory studies to determine the efficacy and safety in a preliminary formulation against induced infections of T. vivax and T. congolense in cattle.[8]
(§2) [7] Methods for testing compound efficacy in mouse models: In vivo mouse efficacy studies were performed at the Swiss TPH, using established mouse models of infection for T. c. and T. v. NMRI female mice were independently infected either with 1 × 10^5T. c. parasites/mouse (STIB736/IL1180 strain) or 1 × 10^4T. v. parasites/mouse (STIB719/ILRAD560 strain) using an intraperitoneal route. Parasitemia was allowed to develop over 7 days (T. c.) or 3 days (T. v.), respectively, before treatment was administered. Compounds were administered via intraperitoneal injection in 10% DMSO/water. Four mice were used per treatment group. Mice were monitored for the presence of trypanosomes, via tail blood examination microscopically with twice-per-week parasitemia checks for 60 days post treatment. Parasitemia was graded on a scale of 0–3, with 0 indicating no trypanosomes seen in 20 fields of view, 1 indicating the presence of 1–5 trypanosomes per field, 2 indicating the presence of 6–20 trypanosomes per field and 3 indicating greater than 20 trypanosomes per field. Mice scoring 2 or 3 were immediately euthanized. After 60 days, aparasitemic mice were considered cured. Untreated control mice survive on average for 10 and 6 days post infection for T. c. and T. v., respectively. All in vivo mouse experiments were conducted in accordance with the strict guidelines set out by the Swiss Federal Veterinary Office, under the ethical approval of license number #2813.

[2] = test system: Trypanosoma congolense (T. congolense IL-3000 strain), bloodstream form; assay: Whole cell Alamar Blue assay, T. congolense (72 h in vitro); format: cell-based; details: Trypanosoma congolense, 72 h, T. congolense IL-3000, 72 h in vitro Alamar Blue assay
Description: (§3) Activity of compounds 1–71 against T. congolense and T. vivax was determined using the whole cell assays as described ^6 and their IC50 values are summarized in Table 1.
(§4) [6] Assay methods for determination of T. c. and T. v. […] Culture media consisted of complete HMI-9 (IMDM) with 20% bovine serum. To ensure log growth phase, trypanosomes were sub-cultured at appropriate dilutions every 2–3 days. Bloodstream form Trypanosoma vivax (T. vivax) cannot be cultured axenically, therefore trypanosomes (T. vivax STIB719/ILRAD 560 strain) were harvested from a highly parasitemia mouse via cardiac puncture and used directly in the ex vivo drug sensitivity assay on the same day. […] Parasite starting concentrations of 2 × 10^5 (T. c.) and 4 × 10^5 (T. v.) were calculated respectively, using a cell analyzer system or haemo-cytometer, followed by quantification at 536 nm excitation and 588 nm emission wavelengths using a […] reader. Test compounds were prepared as 10 mg/mL DMSO stocks for each assay run. Compounds were assayed in at least three separate, independent test runs and an 11-point dilution curve was used to determine the IC50 values. Data points were averaged to generate sigmoidal dose-response curves and IC50 values were determined using Softmax Pro 5.2 software.

[3] = test system: Trypanosoma vivax (T. vivax STIB719/ILRAD 560 strain), bloodstream form; assay: Whole cell Alamar Blue assay, T. vivax (48 h ex vivo); format: cell-based; details: Trypanosoma vivax; T. vivax STIB719/ILRAD 560, 48 h ex vivo Alamar Blue assay
Description: as §3, §4

[4] = In vitro metabolic stability, bovine S9; format: in vitro ADME; details: S9 fraction
Description: as §1

[5] = test system: T. v. parasites (STIB719/ILRAD560 strain); assay: In vivo mouse model of T. vivax infection; design: species or system NMRI female mice; details: for Efficacy in mouse model T. v., n/m (mice survived / total mice in group): intraperitoneal, monitored 60 days post treatment; for curative efficacy in the T. v.-infected mouse model: single dose of 10 mg/kg, IP
Description: as §1, §2

[6] = In vitro metabolic stability, mouse S9; format: in vitro ADME; details: S9 fraction
Description: as §1

Row | Compound | Efficacy in mouse model T. c., n/m (mice survived / total mice in group) ([1]; 1 × 10 mg/kg) | IC50 [2] [nM] | IC50 [3] [nM] | microsomal CLint [4] [µL/min/mg] | Efficacy in mouse model T. v., n/m (mice survived / total mice in group) ([5]; 1 × 10 mg/kg) | curative efficacy in the T. v.-infected mouse model [5] [%] | microsomal CLint [6] [µL/min/mg] | curative efficacy in the T. c.-infected mouse model ([1]; IP) [%] | Efficacy in mouse model T. c., n/m (mice survived / total mice in group) ([1]; 2 × 10 mg/kg) | Efficacy in mouse model T. v., n/m (mice survived / total mice in group) ([5]; 4 × 10 mg/kg) | Efficacy in mouse model T. c., n/m (mice survived / total mice in group) ([1]; 1 × 5 mg/kg) | cure of T. c.-infected mice ([1]; single 5 mg/kg dose, IP) | Efficacy in mouse model T. v., n/m (mice survived / total mice in group) ([5]; 2 × 10 mg/kg)
1 | Cc1c(C(=O)N[C@H](C(=O)OCc2ccc(C(F)(F)F)nc2)C(C)C)ccc2c1B(O)OC2 [Compound 33] | 3/4 (1 × 10) | 0.28 | 26 | 2 | 4/4 (1 × 10) | 100 | 6.3 | – | – | – | – | – | –
2 | Cc1c(C(=O)N[C@H](C(=O)OCC2CCCCC2)C(C)C)ccc2c1B(O)OC2 [Compound 62] | 2/4 (1 × 10) | 0.38 | 0.16 | 20 | 4/4 (1 × 10) | 100 | 10 | ≥ 50 | – | – | – | – | –
3 | Cc1c(C(=O)N[C@H](C(=O)OCc2cccc(CN(C)C)c2)C(C)C)ccc2c1B(O)OC2 [Compound 51] | 0/4 (1 × 10) | 0.25 | 0.21 | 5 | 4/4 (1 × 10) | – | 1.8 | – | – | – | – | – | –
4 | CC(C)[C@H](NC(=O)c1ccc2c(c1)B(O)OC2)C(=O)OCc1ccccc1 [Compound 2] | – | 2 | 2 | – | 1/5 | – | – | – | 0/5 (2 × 10) | 5/5 | – | – | –
5 | Cc1c(C(=O)N[C@H](C(=O)OC2CCOCC2)C(C)C)ccc2c1B(O)OC2 [Compound 69] | 1/4 (1 × 10) | 0.47 | 1.6 | 0.6 | 1/4 (1 × 10) | – | 0.7 | – | – | – | – | – | –
6 | Cc1c(C(=O)N[C@H](C(=O)OC2CCC(F)(F)CC2)C(C)C)ccc2c1B(O)OC2 [Compound 70] | 1/4 (1 × 10) | 0.34 | 2.28 | 0.3 | 4/4 (1 × 10) | – | 1.5 | – | – | – | – | – | –
7 | Cc1c(C(=O)N[C@H](C(=O)OCC2CCC(F)(F)CC2)C(C)C)ccc2c1B(O)OC2 [Compound 71] | 3/4 (1 × 10) | 0.2 | 0.14 | 8.1 | 4/4 (1 × 10) | 100 | 6.4 | – | – | – | – | – | –
8 | Cc1c(C(=O)N[C@H](C(=O)OCC2CCOCC2)C(C)C)ccc2c1B(O)OC2 [Compound 63] | 1/4 (1 × 10) | 0.39 | 0.09 | 1.5 | 4/4 (1 × 10) | – | 0.9 | – | – | – | – | – | –
9 | Cc1c(C(=O)N[C@H](C(=O)OCc2cccc(N3CCN(C)CC3)c2)C(C)C)ccc2c1B(O)OC2 [Compound 50] | 1/4 (1 × 10) | 0.32 | 0.48 | 12.7 | 4/4 (1 × 10) | – | 8.6 | – | – | – | – | – | –
10 | Cc1c(C(=O)N[C@H](C(=O)OCc2ccc(F)c(F)c2)C(C)C)ccc2c1B(O)OC2 [Compound 8] | 4/4 | 0.28 | 0.07 | 5.6 | 4/4 (1 × 10) | 100 | 7.9 | – | – | – | 0/4 | unable to cure | –
11 | Cc1c(C(=O)N[C@H](C(=O)OCc2ccccc2)C(C)C)ccc2c1B(O)OC2 [Compound 4] | – | 0.46 | 0.79 | – | 4/4 | – | – | – | 4/5 (2 × 10) | – | – | – | 5/5
12 | Cc1c(C(=O)N[C@H](C(=O)OCc2ccc(OCCN3CCCC3)cc2)C(C)C)ccc2c1B(O)OC2 [Compound 49] | 2/4 (1 × 10) | 0.39 | 68 | 4 | 4/4 (1 × 10) | 100 | 1.5 | ≥ 50 | – | – | – | – | –
13 | Cc1c(C(=O)N[C@H](C(=O)OCc2ccc(F)c(Cl)c2)C(C)C)ccc2c1B(O)OC2 [Compound 16] | 1/4 | 0.08 | 0.07 | 8.9 | – | – | 15 | – | 4/4 | – | – | – | –
14 | CC(C)[C@H](NC(=O)c1ccc2c(c1F)B(O)OC2)C(=O)OCc1ccc(F)cc1 [Compound 21] | – | 28 | – | < 1 | – | – | < 1 | – | 1/4 (2 × 10) | – | – | – | 4/4 (2 × 10)
15 | Cc1c(C(=O)N[C@H](C(=O)OCc2ccc(S(C)(=O)=O)cc2)C(C)C)ccc2c1B(O)OC2 [Compound 19] | 0/4 (1 × 10) | 0.61 | 0.44 | 1.3 | – | – | 2.6 | – | – | – | – | – | –
16 | Cc1c(C(=O)N[C@H](C(=O)OCc2ccc(C(F)(F)F)cn2)C(C)C)ccc2c1B(O)OC2 [Compound 34] | 2/4 (1 × 10) | 0.14 | 0.07 | 4.8 | 4/4 (1 × 10) | 100 | 11.8 | ≥ 50 | – | – | – | – | –
